Measured values reported in article PMC9323911, “Comparative Metabolomics Study of the Impact of Articaine and Lidocaine on the Metabolism of SH-SY5Y Neuronal Cells” (Metabolites, 2022).
Counter-ions that a name gives are not always drawn. Like-named read-outs stand apart in the source and are kept apart here.

Assays:
[1] = system: SH-SY5Y human neuroblastoma cells; test: resazurin cell viability assay; format: cell-based; details: for IC50: Homo sapiens, SH-SY5Y, read-out: IC50 (cell viability)
Method: Undifferentiated SH-SY5Y human neuroblastoma cells (ATCC® CRL-2266) were cultured in DMEM:F12 medium supplemented with 10% FBS and 1% antibiotic (100 IU/mLof penicillin and 100 μg/mL of streptomycin sulfate). Cells were grown in 75 cm^2 bottles and incubated at 37 °C under a humidified atmosphere with 5% CO2 for 48 h, until reaching semiconfluency. All experiments were performed on cells between passages 4 to 8.
To assess cell viability, the resazurin test was used. This assay evaluates the ability of viable cells to reduce resazurin (blue color) to a fluorescent, pink-colored compound, resorufin. Briefly, the cells were plated in a 96-well plate 24 h before treatment, at a density of 4 × 10^4 cells/mL. […] Each LA was solubilized in complete DMEM:F12 medium. Subsequently, the medium was removed, the wells were washed with 5 mM PBS and the cells were incubated with 10% resazurin for 4 h. At the end of this period, the absorbance was measured at 570 nm (λ1) and at 600 nm (λ2) (Multiskan™ FC Microplate Photometer, Thermofisher). The experiment was performed in triplicate and the differences between the two wavelengths (λ1–λ2) were calculated. The results were expressed in % of cell viability in relation to control and analyzed in GraphPad Prism® 6.0.

SH-SY5Y cells [2] = test: 1H NMR metabolic profiling of culture medium (consumption/excretion); format: cell-based, human; details: vs control
Method: (§1) Afterward, the medium was collected and the dishes washed with cold PBS, immediately before the solvent extraction procedure described below. Unexposed cells were used as controls. Each assay comprised duplicates of each condition and three independent assays were performed, giving a total of 6 replicates per condition.
(§2) The culture medium was collected from each plate (including cell-free medium incubated under the same conditions) in conical tubes and centrifuged at 1000× g for 10 min. Furthermore, 300 µL of the supernatant were collected for protein precipitation, as described by Kostidis et al.. Briefly, 600 µL of 100% methanol (v/v) at −80 °C were added to the collected supernatant ([…]). […] The supernatant was transferred to another tube and vacuum dried (SpeedVac, Eppendorf, Hamburg, Germany). For extracting cellular metabolites, a biphasic extraction protocol (methanol:chloroform:water; 1:1:0.7) was used as previously described. The resulting polar extracts were dried under vacuum in a Speedvac concentrator, and the lipophilic extracts were dried under a nitrogen flow. All extracts were stored at −80 °C prior to NMR analysis.
(§3) For NMR analysis, dried aqueous and lipid extracts were dissolved, respectively, in 600 μL of deuterated phosphate buffer (PBS 100 mM, pH 7.4) containing 0.1 mM 3-(trimethylsilyl) propionic acid (TSP-d4), and 600 μL of deuterated chloroform containing 0.03% tetramethylsilane (TMS). […] Two-dimensional NMR spectra, namely, ^1H-^1H TOCSY, J-resolved and ^1H-^13C HSQC spectra, were also recorded for selected samples to aid metabolite identification. Signal assignment was based on matching 1D and 2D spectral information to reference spectra available in Chenomx 9.0 (Edmonton, AB, Canada), BBIOREFCODE-2–0–0 (Bruker Biospin, Rheinstetten, Germany) and HMDB.
(§4) To provide a quantitative measurement of metabolic variations, spectral integration and total area normalization of selected signals (vide Supplementary Table S1) were carried out in Amix-Viewer 3.9.15 (Bruker Biospin, Rheinstetten, Germany). For each metabolite, the percentage of variation (or fold change) in exposed samples was calculated relative to respective controls, along with the effect size (ES) and statistical significance (p-value). The variations with larger magnitude (|ES| > 0.8) were expressed in a heatmap.

SH-SY5Y cells [3] = test: 1H NMR metabolic profiling of cell aqueous extracts; format: cell-based, human
Method: as §1, §2, §3
Principal Component Analysis (PCA) and Partial Least Squares-Discriminant Analysis (PLS-DA) were applied and the results were visualized through factorial co-ordinates (‘scores’) and factorial contributions (‘loadings’) colored according to variable importance to the projection (VIP). For PLS-DA models, Q^2 and R^2 values, respectively reflecting predictive capability and explained variance, obtained from sevenfold internal cross validation, were used to assess the robustness of group discrimination.
as §4

CCN(CC)CC(=O)Nc1c(C)cccc1C [LDC, lidocaine hydrochloride]
IC10 (concentration reducing cell viability by 10%) ([1]; 24 h exposure): 1.2 mM | IC50 ([1]; 20 min): 7.3 ± 0.3 mM | IC50 ([1]; 1 h): 7.4 ± 0.3 mM | IC50 ([1]; 4 h): 5.7 ± 0.2 mM | IC50 ([1]; 24 h): 3.6 mM | IC50 [1]: ~7 mM | pyruvate consumption (SH-SY5Y cells [2]; IC10, 24 h): increased significantly | pyruvate consumption (SH-SY5Y cells [2]; IC50, 24 h): no difference to controls | 2-Ketovaline, variation in relation to control (SH-SY5Y cells [3]; IC10, 24 h, aqueous extract): 0.0% | 2-Oxoisoleucine, variation in relation to control (SH-SY5Y cells [3]; IC10, 24 h, aqueous extract): 0.0% | ATP + ADP, variation in relation to control (SH-SY5Y cells [3]; IC10, 24 h, aqueous extract): -10.4% | Alanine, variation in relation to control (SH-SY5Y cells [3]; IC10, 24 h, aqueous extract): 0.0% | Asparagine, variation in relation to control (SH-SY5Y cells [3]; IC10, 24 h, aqueous extract): -18.9% | Aspartate, variation in relation to control (SH-SY5Y cells [3]; IC10, 24 h, aqueous extract): -12.9% | Creatine, variation in relation to control (SH-SY5Y cells [3]; IC10, 24 h, aqueous extract): 24.9% | Cystathionine, variation in relation to control (SH-SY5Y cells [3]; IC10, 24 h, aqueous extract): 12.1% | Formate, variation in relation to control (SH-SY5Y cells [3]; IC10, 24 h, aqueous extract): 17.0% | Glutamate, variation in relation to control (SH-SY5Y cells [3]; IC10, 24 h, aqueous extract): -16.3% | Glutamine, variation in relation to control (SH-SY5Y cells [3]; IC10, 24 h, aqueous extract): -22.0% | Glycerophosphocholine, variation in relation to control (SH-SY5Y cells [3]; IC10, 24 h, aqueous extract): -11.7% | Glycine, variation in relation to control (SH-SY5Y cells [3]; IC10, 24 h, aqueous extract): 16.6% | Histidine, variation in relation to control (SH-SY5Y cells [3]; IC10, 24 h, aqueous extract): 11.8% | Isobutyrate, variation in relation to control (SH-SY5Y cells [3]; IC10, 24 h, aqueous extract): -14.4% | Isoleucine, variation in relation to control (SH-SY5Y cells [3]; IC10, 24 h, aqueous extract): 18.2% | Lactate, variation in relation to control (SH-SY5Y cells [3]; IC10, 24 h, aqueous extract): 0.0% | Leucine, variation in relation to control (SH-SY5Y cells [3]; IC10, 24 h, aqueous extract): 33.4% | NAD+, variation in relation to control (SH-SY5Y cells [3]; IC10, 24 h, aqueous extract): 0.0% | Panthothenic, variation in relation to control (SH-SY5Y cells [3]; IC10, 24 h, aqueous extract): 11.9% | Phenylalanine, variation in relation to control (SH-SY5Y cells [3]; IC10, 24 h, aqueous extract): 22.7% | Phosphocholine, variation in relation to control (SH-SY5Y cells [3]; IC10, 24 h, aqueous extract): 14.1% | Phosphocreatine, variation in relation to control (SH-SY5Y cells [3]; IC10, 24 h, aqueous extract): -16.1% | Proline, variation in relation to control (SH-SY5Y cells [3]; IC10, 24 h, aqueous extract): -15.8% | UDP-GlcNAc, variation in relation to control (SH-SY5Y cells [3]; IC10, 24 h, aqueous extract): -10.8% | Valine, variation in relation to control (SH-SY5Y cells [3]; IC10, 24 h, aqueous extract): 15.5% | beta-Alanine, variation in relation to control (SH-SY5Y cells [3]; IC10, 24 h, aqueous extract): -10.0% | myo-Inositol, variation in relation to control (SH-SY5Y cells [3]; IC10, 24 h, aqueous extract): -16.9% | 2-Ketovaline, variation in relation to control (SH-SY5Y cells [3]; IC50, 24 h, aqueous extract): 16.5% | 2-Oxoisoleucine, variation in relation to control (SH-SY5Y cells [3]; IC50, 24 h, aqueous extract): 21.6% | ATP + ADP, variation in relation to control (SH-SY5Y cells [3]; IC50, 24 h, aqueous extract): -23.0% | Alanine, variation in relation to control (SH-SY5Y cells [3]; IC50, 24 h, aqueous extract): 17.1% | Asparagine, variation in relation to control (SH-SY5Y cells [3]; IC50, 24 h, aqueous extract): 27.8% | Aspartate, variation in relation to control (SH-SY5Y cells [3]; IC50, 24 h, aqueous extract): 12.1% | Creatine, variation in relation to control (SH-SY5Y cells [3]; IC50, 24 h, aqueous extract): 17.6% | Cystathionine, variation in relation to control (SH-SY5Y cells [3]; IC50, 24 h, aqueous extract): -28.3% | Formate, variation in relation to control (SH-SY5Y cells [3]; IC50, 24 h, aqueous extract): 58.8% | Glutamate, variation in relation to control (SH-SY5Y cells [3]; IC50, 24 h, aqueous extract): 0.0% | Glutamine, variation in relation to control (SH-SY5Y cells [3]; IC50, 24 h, aqueous extract): 43.0% | Glycerophosphocholine, variation in relation to control (SH-SY5Y cells [3]; IC50, 24 h, aqueous extract): -33.4% | Glycine, variation in relation to control (SH-SY5Y cells [3]; IC50, 24 h, aqueous extract): 48.8% | Histidine, variation in relation to control (SH-SY5Y cells [3]; IC50, 24 h, aqueous extract): 22.5% | Isoleucine, variation in relation to control (SH-SY5Y cells [3]; IC50, 24 h, aqueous extract): 33.4% | Lactate, variation in relation to control (SH-SY5Y cells [3]; IC50, 24 h, aqueous extract): -12.4% | Leucine, variation in relation to control (SH-SY5Y cells [3]; IC50, 24 h, aqueous extract): 54.2% | NAD+, variation in relation to control (SH-SY5Y cells [3]; IC50, 24 h, aqueous extract): 16.7% | Panthothenic, variation in relation to control (SH-SY5Y cells [3]; IC50, 24 h, aqueous extract): 14.7% | Phenylalanine, variation in relation to control (SH-SY5Y cells [3]; IC50, 24 h, aqueous extract): 36.2% | Phosphocholine, variation in relation to control (SH-SY5Y cells [3]; IC50, 24 h, aqueous extract): 23.7% | Phosphocreatine, variation in relation to control (SH-SY5Y cells [3]; IC50, 24 h, aqueous extract): -42.3% | Proline, variation in relation to control (SH-SY5Y cells [3]; IC50, 24 h, aqueous extract): -38.0% | UDP-GlcNAc, variation in relation to control (SH-SY5Y cells [3]; IC50, 24 h, aqueous extract): -38.7% | Valine, variation in relation to control (SH-SY5Y cells [3]; IC50, 24 h, aqueous extract): 33.9% | beta-Alanine, variation in relation to control (SH-SY5Y cells [3]; IC50, 24 h, aqueous extract): -72.1% | myo-Inositol, variation in relation to control (SH-SY5Y cells [3]; IC50, 24 h, aqueous extract): -50.6% | intracellular glutamate level (in words) (SH-SY5Y cells [3]; IC50, 24 h, vs control): not altered | intracellular phosphocholine level (in words) (SH-SY5Y cells [3]; IC50, 24 h, vs control): increased
